How the values were obtained:
[1] = molecular target: interaction between PD-1 and PD-L1 (Homo sapiens, UniProt Q9NZQ7); assay: PD-1/PD-L1 protein-protein interaction assay (ALPHA); type: binding; details: 2 nM His-tagged human PD-L1, 0.6 nM PD-1-Fc, AlphaScreen
PD-1/PD-L1 interaction = molecular target: T1, PD-1/PD-L1 interaction (Homo sapiens, UniProt Q9NZQ7); assay: PD-1/PD-L1 blockage cell-based bioassay (Jurkat NFAT luciferase / CHO-PDL1 co-culture); details: Jurkat NFAT cells co-cultured with CHO-PDL1 cells, 6 h, luminescence
T1 construct: expressed in transfected cells
T1 sequence (Q9NZQ7 19-290): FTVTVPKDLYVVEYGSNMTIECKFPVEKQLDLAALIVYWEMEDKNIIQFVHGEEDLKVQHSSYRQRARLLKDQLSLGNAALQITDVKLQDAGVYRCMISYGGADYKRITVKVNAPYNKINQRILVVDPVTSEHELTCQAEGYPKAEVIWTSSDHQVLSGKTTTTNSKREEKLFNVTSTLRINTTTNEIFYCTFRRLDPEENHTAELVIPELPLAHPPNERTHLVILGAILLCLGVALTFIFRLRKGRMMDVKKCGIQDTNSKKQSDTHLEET

Sequence of interaction between PD-1 and PD-L1 (Q9NZQ7 19-238 limits assumed): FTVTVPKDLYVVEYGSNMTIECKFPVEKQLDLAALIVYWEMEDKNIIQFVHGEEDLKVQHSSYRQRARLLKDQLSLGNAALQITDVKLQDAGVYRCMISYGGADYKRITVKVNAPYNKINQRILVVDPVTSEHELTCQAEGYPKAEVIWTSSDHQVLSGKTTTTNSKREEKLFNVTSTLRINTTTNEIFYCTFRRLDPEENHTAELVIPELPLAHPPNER

COc1cc(-n2ncc3c(-c4cccc(Nc5nc(C(F)F)nc6cc(CN7CC[C@@H](C(=O)O)C7)cnc56)c4C)cccc32)cc(OC)c1CN1CC[C@@H](O)C1 [Example 165, (R)-1-((2-(difluoromethyl)-4-((3-(1-(4-(((R)-3-hydroxypyrrolidin-1-yl)methyl)-3,5-dimethoxyphenyl)-1H-indazol-4-yl)-2-methylphenyl)amino)pyrido[3,2-d]pyrimidin-7-yl)methyl)pyrrolidine-3-carboxylic acid]
IC50 [1]: < 0.001 µM | IC50 (PD-1/PD-L1 interaction): < 0.2 µM

COc1cc(-n2ncc3c(-c4cccc(Nc5nc(C(F)F)nc6cc(CN7CC[C@@H](O)C7)cnc56)c4C)cccc32)cc(OC)c1CN(C)C12CCC(C(=O)O)(CC1)CC2 [Example 166, (R)-4-((4-(4-(3-((2-(difluoromethyl)-7-((3-hydroxypyrrolidin-1-yl)methyl)pyrido[3,2-d]pyrimidin-4-yl)amino)-2-methylphenyl)-1H-indazol-1-yl)-2,6-dimethoxybenzyl)(methyl)amino)bicyclo[2.2.2]octane-1-carboxylic acid]
IC50 [1]: < 0.001 µM | IC50 (PD-1/PD-L1 interaction): < 0.2 µM
